# In paper PMC8928484 (Journal of the American Chemical Society, 2022):
# Where two headings read alike, the source gives them in different places.
# Key:
# FEM1B [1] = molecular target: T1, FEM1B (Mus musculus, UniProt Q9Z2G0); assay: competitive fluorescence polarization with TAMRA-FNIP1 degron; assay type: binding
# FEM1B [2] = molecular target: T1, FEM1B; assay: as above; assay type: binding; remark: listed apart in the source
# T1 sequence (Q9Z2G0 whole entry): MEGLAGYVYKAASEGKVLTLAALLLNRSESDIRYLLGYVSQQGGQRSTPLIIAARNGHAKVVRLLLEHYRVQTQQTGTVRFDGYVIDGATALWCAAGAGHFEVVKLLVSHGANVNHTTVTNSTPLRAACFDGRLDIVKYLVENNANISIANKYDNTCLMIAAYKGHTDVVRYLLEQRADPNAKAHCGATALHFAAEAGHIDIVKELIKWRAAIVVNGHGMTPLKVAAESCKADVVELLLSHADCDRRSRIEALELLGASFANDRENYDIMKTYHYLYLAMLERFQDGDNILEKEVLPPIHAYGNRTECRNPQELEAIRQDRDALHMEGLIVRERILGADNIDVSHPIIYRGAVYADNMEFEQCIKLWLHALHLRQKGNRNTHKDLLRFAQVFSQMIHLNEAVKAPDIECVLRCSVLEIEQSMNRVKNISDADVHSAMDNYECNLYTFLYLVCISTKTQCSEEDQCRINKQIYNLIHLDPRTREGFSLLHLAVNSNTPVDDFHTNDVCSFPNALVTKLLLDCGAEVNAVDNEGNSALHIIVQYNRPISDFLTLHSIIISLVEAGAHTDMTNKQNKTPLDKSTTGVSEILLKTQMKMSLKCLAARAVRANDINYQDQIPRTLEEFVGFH
Molecule,IC50 (FEM1B [1]) [nM],IC50 (FEM1B [2]) [nM]
NJH-1-106,1500,–
C#CCCCC(=O)N1CCOc2cc(N(CCC#N)C(=O)CCl)ccc21 [NJH-2-030],–,670
